Experimental data taken from PMC10564737, “Structure-based design of a phosphotyrosine-masked covalent ligand targeting the E3 ligase SOCS2” (Nature Communications, 2023).

Legend:
[1] = molecular target: T1, SOCS2 Cys111 (Homo sapiens, UniProt O14508); assay: SOCS2 immunoprecipitation and tandem MS (LC-MS/MS) of Cys111 peptide from treated K562 cells; format: cell-based; conditions: 6 h
T1 construct: MN551 covalently modifies cellular SOCS2 specifically at Cys111; endogenous in cells; host or cells: K562
T1 sequence (O14508 1-198): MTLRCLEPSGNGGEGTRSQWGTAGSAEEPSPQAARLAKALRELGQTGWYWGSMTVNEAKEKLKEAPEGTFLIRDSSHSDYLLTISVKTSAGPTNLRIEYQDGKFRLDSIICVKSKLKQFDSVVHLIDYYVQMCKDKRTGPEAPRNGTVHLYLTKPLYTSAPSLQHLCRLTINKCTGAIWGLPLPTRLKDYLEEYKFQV
Experimental: While CETSA and GHR pulldown experiments allow ascertaining the engagement of cellular SOCS2, distinguishing reversible binding from covalent binding remains a challenge. […] Moreover, the MS2 spectra for cells treated with 1 μM and 10 μM MN714 show a dose-dependent increase in levels of SOCS2 modification (Fig. 6e).
Cells were treated with either DMSO, 1 μM, or 10 μM MN714 for 6 h in 10 cm dish. Cells were harvested, washed with PBS, and lysed in […] RIPA buffer (Sigma-R0278: 150 mM NaCl, 1.0% IGEPAL® CA-630, 0.5% sodium deoxycholate, 0.1% SDS, 50 mM Tris, pH 8.0, and freshly added protease inhibitor tablet). Cellular debris was pelleted, the lysate supernatant was aspirated to a new tube and subjected to immunoprecipitation at 4 °C for 4 h with 3 μl anti-SOCS2 antibody coupled to 20 μl of protein A/G beads (abcam- ab109245). The beads were washed 3 times with 1× RIPA buffer and precipitated protein samples were eluted with 1 × NuPAGE™ LDS sample buffer, and 20% of the sample was analyzed by SDS-PAGE and western blot using a rabbit anti-SOCS2 primary antibody (abcam) and IRDye® 800CW donkey anti-rabbit IgG secondary antibody. The remaining precipitated protein samples were processed for mass-spec analysis. In brief, the samples were reduced with DTT alkylated with Iodoacetamide and subjected to the SP3 protein clean-up procedure. […]
LC-MS analysis was performed by the FingerPrints Proteomics Facility (University of Dundee). Analysis of peptide readout was performed on a Q-Exactive™ plus, Mass Spectrometer (Thermo Scientific) coupled to a Dionex Ultimate 3000 RS (Thermo Scientific). […]
MS raw data were analyzed using MaxQuant software, standard settings were used with the following changes and additions: The modified FASTA databases with individual substitutions of cysteines with the placeholder “U” (selenocysteine) were used[67]. […] The relative intensity of peptide […] without and with a modified cysteine (placeholder “U”) were analyzed by normalizing to total intensity of SOCS2 protein.

[2] = tested on: K562 cells; assay: In-cell time-resolved 19F-NMR of prodrug unmasking; format: in vitro ADME; conditions: K562 cell suspension, 500 µM, 37 °C
Excerpt: (§1) Although, with the live-cell CETSA setup we could rank the prodrugs for overall potency, we cannot decouple the individual contributions of cellular permeability and prodrug unmasking rate. To understand the rate of unmasking inside the live cells, we developed an in-cell time-resolved ^19F-NMR to monitor the rate of POM group unmasking (Fig. 5). ^19F-NMR is uniquely suited for this task due to the high receptivity of ^19F, low background in biological samples, and remarkable sensitivity of ^19F chemical shifts to their chemical environment[43],[44]. The latter means that even the distant fluorine of MN551 could act as a reporter for the presence of the masking group on the phosphotyrosine moiety. […] While the downfield peak starts off with higher intensity, it loses intensity quickly and within an hour is overtaken by the growing upfield peak. Within 3 h the downfield peak completely disappears and only the upfield peak is observed. […]
(§2) K562 cells were maintained in IMDM media supplemented with 10% FBS. […] To confirm the identity of the observed species, the lysate was sequentially spiked with 500 µM MN551 and prodrug and measured again. […] All spectra were processed and analyzed using Topspin 4.1.1.

[3] = In-cell time-resolved 19F-NMR of prodrug unmasking; format: in vitro ADME; conditions: human, K562 cell suspension (65% v/v cell content), 37 °C, read-out: half-life time of prodrug unmasking in cells
Excerpt: as §1, §2

In the case of CC(C)(C)C(=O)OCOP(=O)(OCOC(=O)C(C)(C)C)Oc1ccc(C[C@H](NC(=O)Cc2ccc(F)cc2)C(=O)NCc2cccc(NC(=O)CCl)c2)cc1 [MN714], the “relative intensity of modified peptide LDSIIUVK, normalised to total SOCS2 levels” value ([1]; 1uM) was 24.9386, the “relative intensity of unmodified peptide LDSIICVK, normalised to total SOCS2 levels” value ([1]; 1uM) was 85.6581 and the “relative intensity of unmodified peptide LDSIICVK, normalised to total SOCS2 levels” value ([1]; 10uM) was 0. The “time to complete disappearance of the prodrug (downfield) peak” value [2] was ≤ 3 h and the half-life at 500 µM [3] was 1 to 1.5 h.
